From PMC7216583 (Parasites & Vectors, 2020)
Counter-ions that a name gives are not always drawn. Like-named read-outs stand apart in the source and are kept apart here.

Tests used:
in vitro = settings: human
[1] = tested on: Toxoplasma gondii RH-2F tachyzoites; assay: microbe, parasite or virus in culture; settings: 72 h; for inhibition at 5 µM: read-out: Parasite inhibition (%) Mean ± SD
[2] = tested on: Toxoplasma gondii RH-2F tachyzoites; settings: mean
[3] = read-out: Parasite inhibition (%) mean, preliminary screen of compound library, mean
[4] = preliminary screen of compound library
[5] = read-out: Parasite inhibition (%) mean, preliminary screen, mean
[6] = read-out: Parasite inhibition (%) mean

CNC(=O)c1ccc(-c2cnc3ncc(Cc4ccc5ncccc5c4)n3n2)cc1F [INCB28060]
viability (in vitro): 46.3% | inhibition of growth at 5 µM [1, 3]: 89.8%

N[C@@H]1CN(c2c(F)cc3c(=O)c(C(=O)O)cn([C@@H]4C[C@@H]4F)c3c2Cl)CC12CC2.O [Sitafloxacin hydrate]
Parasite inhibition (%) mean [2, 4]: 53.1%

Nc1nc2[nH]cc(CCc3ccc(C(=O)N[C@@H](CCC(=O)O)C(=O)O)cc3)c2c(=O)[nH]1 [Pemetrexed disodium, reference compound]
viability at 72 h, 5 µM (in vitro): 84.6 ± 1.5%

Cl.NC(=O)c1cnc(N[C@@H]2CCCC[C@@H]2N)nc1Nc1cccc(-n2nccn2)c1 [PRT062607 HCl]
Parasite inhibition (%) mean [2, 4]: 17.8%

CC(O)C(=O)O.CC(O)C(=O)O.CN1CCN(c2ccc3nc(-c4c(N)c5c(F)cccc5[nH]c4=O)[nH]c3c2)CC1 [Dovitinib Dilactic acid]
Parasite inhibition (%) mean [2, 4]: 18.2%

Cc1cccc(C(C)c2cnc[nH]2)c1C (stereo not shown) [Medetomidine HCl, reference compound]
viability (in vitro): 90.5% | viability at 5 µM (in vitro): 90.5 ± 4.4% | inhibition at 5 µM [1]: 70.8 ± 1.5%

O=S(=O)(F)Cc1ccccc1 [PMSF (Phenylmethylsulfonyl Fluoride)]
Parasite inhibition (%) mean [2, 4]: 0.8%

Nc1ccccc1NC(=O)c1ccc(CNc2nccc(-c3cccnc3)n2)cc1 [Mocetinostat, reference compound]
viability at 72 h, 5 µM (in vitro; Host viability (%) Mean ± SD): 80.2 ± 3.8% | inhibition at 5 µM [1]: 86.5 ± 3.1%

Nc1ccccc1NC(=O)c1ccc(CNC(=O)OCc2cccnc2)cc1 [Entinostat, reference compound]
viability at 72 h, 5 µM (in vitro; Host viability (%) Mean ± SD): 81.6 ± 1.5% | inhibition at 5 µM [1]: 75.7 ± 2.2%

Biapenem
Parasite inhibition (%) mean [2, 4]: 5.8%

CC1(C)CCC(CN2CCN(c3ccc(C(=O)NS(=O)(=O)c4ccc(NCC5CCOCC5)c([N+](=O)[O-])c4)c(Oc4cnc5[nH]ccc5c4)c3)CC2)=C(c2ccc(Cl)cc2)C1 [ABT-199 (GDC-0199 )]
viability at 72 h (in vitro; Host viability (%) mean): 25.4% | inhibition of growth at 5 µM [1, 3]: 70.8%

CC(C)Cc1ccc(C(C)C(=O)O)cc1.NCCCC[C@H](N)C(=O)O (stereo not shown) [Ibuprofen Lysine (NeoProfen)]
Parasite inhibition (%) mean ([2]; preliminary screen): -1.6%

COc1cc2c(Nc3ccc(NC(=O)c4ccccc4)cc3)ncnc2cc1OCCCN1CCOCC1 [ZM-447439]
viability at 72 h (in vitro; Host viability (%) mean): 31.2% | inhibition of growth at 5 µM [1, 5]: 70.2%

CCN1CCN(c2cc(-c3ccc(F)cc3)c3c(n2)CCCCCC3)CC1 [Blonanserin, reference compound]
viability at 72 h, 5 µM (in vitro; Host viability (%) Mean ± SD): 88.3 ± 5.9% | inhibition at 5 µM [1]: 82.1 ± 3.1%

CN(C)Cc1c(C(=O)NCCOc2ccc(C(=O)NO)cc2)oc2ccccc12 [PCI-24781]
viability at 72 h (in vitro; Host viability (%) mean): 33.8% | inhibition of growth at 5 µM [1, 5]: 82.7%

COc1cc2c(Nc3ccc(Br)cc3F)ncnc2cc1OCC1CCN(C)CC1 [Vandetanib (Zactima)]
viability at 72 h (in vitro): 79.5% | inhibition of growth at 5 µM [1, 5]: 80.2%

[I-].[K+] [Potassium iodide]
Parasite inhibition (%) mean [2, 4]: 10.2%

C=C[C@H]1C[N@@]2CC[C@H]1C[C@H]2[C@H](O)c1ccnc2ccc(OC)cc12 [Quinine hydrochloride dihydrate]
viability (in vitro): 79.4% | inhibition of growth at 5 µM [1, 3]: 78.9%

C[C@]1(O)C[C@@H](c2nc(-c3ccc4ccc(-c5ccccc5)nc4c3)c3c(N)nccn32)C1 [Linsitinib (OSI-906)]
viability at 72 h (in vitro; Host viability (%) mean): 72.2% | inhibition of growth at 5 µM [1, 5]: 78.8%

CN(C)c1ccc(-c2nc3c(N4CCN(CC(=O)Nc5nccs5)CC4)c(Cl)cnc3[nH]2)cc1 [CCT129202]
viability at 72 h (in vitro; Host viability (%) mean): 42.6% | inhibition of growth at 5 µM [1, 5]: 85.6%

CN1CCC(=C2c3ccccc3C=Cc3ccccc32)CC1 [Cyproheptadine HCl, reference compound]
viability at 72 h, 5 µM (in vitro; Host viability (%) Mean ± SD): 90.6 ± 1.2%

Oc1cc(O)c(Cl)cn1 [Gimeracil]
viability at 72 h (in vitro; Host viability (%) mean): 75.6% | inhibition of growth at 5 µM [1, 5]: 70.8%

O=C(C[S+]([O-])Cc1ccco1)NC/C=C\COc1cc(CN2CCCCC2)ccn1 (stereo not shown) [Lafutidine, reference compound]
viability at 72 h, 5 µM (in vitro; Host viability (%) Mean ± SD): 92.7 ± 5.6% | viability at 72 h (in vitro; Host viability (%) mean): 92.7% | inhibition at 5 µM [1]: 70.6 ± 2.5%

NCCC(O)(P(=O)(O)O)P(=O)(O)O [Pamidronate disodium, reference compound]
viability at 72 h (in vitro): 80.8% | viability at 72 h, 5 µM (in vitro): 80.8 ± 1.4% | inhibition at 5 µM [1]: 79.6 ± 1.5%

CNC1CCCN(c2c(F)cc3c(=O)c(C(=O)O)cn(C4CC4)c3c2OC)C1 (stereo not shown) [Balofloxacin]
viability at 72 h (in vitro; Host viability (%) mean): 76.4% | inhibition of growth at 5 µM [1, 3]: 71.8%

Nc1ccccc1NC(=O)c1ccc(CNc2nccc(-c3cccnc3)n2)cc1 [Mocetinostat (MGCD0103)]
viability at 72 h (in vitro; Host viability (%) mean): 80.2% | inhibition of growth at 5 µM [1, 5]: 86.5%

CN1CCC(=C2c3ccccc3C=Cc3ccccc32)CC1 [Cyproheptadine HCl (Periactin)]
viability at 72 h (in vitro; uninfected human foreskin fibroblasts (HFFs), Host viability (%) mean, preliminary screen, mean): 90.6%

OCCn1cc(-c2cnc3nnn(Cc4ccc5ncccc5c4)c3n2)cn1 [PF-04217903]
viability at 72 h (in vitro): 65% | inhibition of growth at 5 µM [1, 6]: 88.6%

Nc1ccccc1NC(=O)c1ccc(CNC(=O)OCc2cccnc2)cc1 [Entinostat (MS-275, SNDX-275)]
viability at 72 h (in vitro; Host viability (%) mean): 81.6% | inhibition of growth at 5 µM [1, 5]: 75.7%

Cc1cc(Nc2cc(N3CCN(C)CC3)nc(Sc3ccc(NC(=O)C4CC4)cc3)n2)n[nH]1 [VX-680 (MK-0457, Tozasertib)]
viability at 72 h (in vitro; Host viability (%) mean): 34.7% | inhibition of growth at 5 µM [1, 5]: 70.7%

C[C@@H](Oc1cc(-c2cnn(C3CCNCC3)c2)cnc1N)c1c(Cl)ccc(F)c1Cl [Crizotinib (PF-02341066)]
viability (in vitro): 43.6% | inhibition of growth at 5 µM [1, 5]: 86.8%

O=C1CCC[C@@H]2[C@@H]3CCCN4CCC[C@H](CN12)[C@@H]34 [Matrine ((+)-Matrine)]
viability at 72 h (in vitro; uninfected human foreskin fibroblasts (HFFs)): 19.6% | inhibition of growth at 5 µM [1, 3]: 78.7%

CC(C)C[C@@H](C(=O)N[C@H](C(=O)OC1CCCC1)c1ccccc1)[C@H](O)C(=O)NO [CHR2797, reference compound]
viability at 72 h, 5 µM (in vitro; Host viability (%) Mean ± SD): 88.8 ± 6.7% | inhibition at 5 µM [1]: 85.6 ± 1.8%

C[C@@H](C(=O)O)c1ccc(-c2ccccc2)c(F)c1 [Flurbiprofen (Ansaid)]
inhibition of growth at 5 µM [1, 3]: -23.7%

NC(=O)Cc1cccc(C(=O)c2ccccc2)c1N [Nepafenac]
inhibition of growth at 5 µM [1, 3]: -10.3%

CC[C@]12C=CCN3CCC4(c5cc([C@@]6(C(=O)OC)C[C@H]7C[C@@H](C(C)(F)F)CN(Cc8c6[nH]c6ccccc86)C7)c(OC)cc5N(C)[C@H]4[C@@](O)(C(=O)OC)[C@@H]1OC(C)=O)C32 (stereo in doubt) [Vinflunine Tartrate]
viability (in vitro): 60.8% | inhibition of growth at 5 µM [1, 5]: 83.2%

Cc1cc(C#N)cc(C)c1Oc1nc(Nc2ccc(C#N)cc2)nc(N)c1Br [Etravirine (TMC125)]
inhibition of growth at 5 µM [1, 3]: 0%

Cc1c(Cn2c(C)nc3c(C(=O)O)cc(N4CCOCC4)cc32)cccc1C(F)(F)F [GSK2636771]
inhibition of growth at 5 µM [1, 3]: 1.7%

C#Cc1cccc(Nc2ncnc3cc(OC)c(OCCCCCCC(=O)NO)cc23)c1 [CUDC-101]
inhibition of growth at 5 µM [1, 6]: 46.2%

Cc1cn([C@@H]2C[C@@H](O)[C@H](CO)O2)c(=O)[nH]c1=O [Telbivudine (Sebivo, Tyzeka)]
inhibition of growth at 5 µM [1, 3]: 12.9%

O[C@@H](COc1cccc2ncccc12)CN1CCN([C@@H]2c3ccccc3[C@@H]3[C@H](c4ccccc42)C3(F)F)CC1 [LY335979 (Zosuquidar 3HCl)]
inhibition of growth at 5 µM [1, 6]: -7.9%

O=C(O)CCCCC(CCSCc1ccccc1)SCc1ccccc1 (stereo not shown) [CPI-613]
inhibition of growth at 5 µM [1, 3]: 31.1%

OC[C@@H](O)[C@@H](O)[C@H](O)[C@H](O)CO [D-Mannitol (Osmitrol)]
inhibition of growth at 5 µM [1, 3]: 0.2%

Cc1nc(NC(=O)N2CCC[C@H]2C(N)=O)sc1-c1ccnc(C(C)(C)C(F)(F)F)c1 [BYL719]
inhibition of growth at 5 µM [1, 3]: 47.5%

COc1ccc(Cl)cc1C(=O)NCCc1ccc(S(=O)(=O)NC(=O)NC2CCCCC2)cc1 [Glyburide (Diabeta)]
inhibition of growth at 5 µM [1, 3]: 1.9%

NCC(=O)CCC(=O)O [5-Aminolevulinic acid hydrochloride]
inhibition of growth at 5 µM [1, 3]: 20.1%

CC1(C)[C@@H](O[C@H]2O[C@H](C(=O)O)[C@@H](O)[C@H](O)[C@@H]2O[C@@H]2O[C@H](C(=O)O)[C@@H](O)[C@H](O)[C@H]2O)CC[C@@]2(C)[C@H]3C(=O)C=C4[C@@H]5C[C@@](C)(C(=O)O)CC[C@]5(C)CC[C@@]4(C)[C@]3(C)CC[C@@H]12 [Ammonium Glycyrrhizinate (AMGZ)]
inhibition of growth at 5 µM [1, 3]: 0.1%

CCOc1nc2cccc(C(=O)OCc3oc(=O)oc3C)c2n1Cc1ccc(-c2ccccc2-c2nc(=O)o[nH]2)cc1 [Azilsartan Medoxomil (TAK-491)]
inhibition of growth at 5 µM [1, 3]: 35.5%

C[C@H](Cc1cc2c(c(C(N)=O)c1)N(CCCO)CC2)NCCOc1ccccc1OCC(F)(F)F [Silodosin (Rapaflo)]
inhibition of growth at 5 µM [1, 5]: 47.9%

C[C@](O)(COc1ccc(C#N)cc1)C(=O)Nc1ccc(C#N)c(C(F)(F)F)c1 [Ostarine (MK-2866)]
inhibition of growth at 5 µM [1, 5]: 0.7%

O=C(Nc1ccc(S(=O)(=O)Nc2ccccc2Cl)c(Cl)c1)c1ccccn1 [VU 0364439]
inhibition of growth at 5 µM [1, 3]: -0.9%

C[C@@H](NCCCc1cccc(C(F)(F)F)c1)c1cccc2ccccc12 [AMG-073 HCl (Cinacalcet HCl)]
inhibition of growth at 5 µM [1, 5]: -0.4%
